From publication PMC10674160, “Synthesis and Preclinical Evaluation of Radiolabeled [^103Ru]BOLD-100” (Pharmaceutics, 2023)

Columns and labels:
[1] = Tissue distribution in CT26 allograft bearing Balb/c mice (ICP-MS for 3a, gamma counting for 3b); format: in vivo; details: 30 mg/kg i.v.
Experimental: UV/Vis spectra were recorded on a Hitachi U-2000 Dual Beam spectrophotometer. Sample activities were measured on an ISOMED 2010 dose calibrator. For centrifugation during synthesis, a Fisherbrand^TM Mini-Centrifuge from Fisher Scientific was used. Radioactive organ samples were measured on Perkin Elmer Wizard^2 gamma counter. Non-radioactive organ samples were prepared, and the ruthenium content was quantified with ICP-MS. The exact procedure including instrument information can be found in the Supplementary Materials.
For the evaluation of organ distribution, CT26 cells (5 × 10^5 in serum-free medium) were injected subcutaneously into the right flank of Balb/c mice. Animals were controlled for distress development every day and tumor size was assessed regularly using caliper measurements. CT26 cells were inoculated 10 days prior to drug application. Tumor volume was calculated using the formula: (length × width^2); the tumors reached a size of about 500 mm^3. Animals were treated once intravenously (i.v.) via tail-vein injection with 3a or 3b at a dose of 30 mg/kg (dissolved in 0.9% NaCl, 0.6 mg/100 µL/20 g mouse) and a specific activity of 0.64–1.36 MBq/mg for compound 3b. The mice were anesthetized and sacrificed by cervical fracture 4, 24, 48 and 72 h p.i., with n ≥ 2 (3a) and n ≥ 3 (3b) for each time point. Samples of tumor, liver, kidney, muscle, heart, lung, spleen, pancreas, stomach, colon, small intestine, brain, bone, and blood were collected from each mouse. After clotting at RT, serum was isolated from the collected blood samples by centrifugation at 3000 rpm for 10 min twice and stored together with the collected tissue samples at −20 °C. Finally, the ruthenium content was quantified by ICP-MS in the case of the non-radioactive BOLD-100 (3a) and via gamma counting for [^103Ru]BOLD-100 (3b).
An Agilent 7800 ICP-MS (Agilent Technologies, Tokyo, Japan) was being employed, which was equipped with an Agilent SPS 4 autosampler (Agilent Technologies, Tokyo, Japan) and a MicroMist nebulizer at a sample uptake rate of approx. 0.2 mL/min. The Agilent MassHunter software package (Workstation Software, Version C.01.04, 2018) was used for data evaluation. The instrumental parameters […]
Reference source not found..
Ta ble S1: Instrumental parameters for the ICP-MS measurements […]
Spray chamber Scott double-pass
Spraying chamber temp. 2°C
Nebulizer gas 1.06 L min−1
Auxiliary gas 0.90 L min−1
The instrumental limit of quantification (LOQ) was determined at the start of the measurement by […]
LOQ = blank average + 10*STD
Blank corrections were performed for all the samples. Robustness was ensured by tuning the ICP-MS on a daily basis, by using an internal standard (115In) and measuring calibration standards for each […]
Ultrapure water (18.2 MΩ cm, ELGA Water purification system, Purelab Ultra MK 2, UK or 18.2 MΩ cm, Milli-Q Advantage, Darmstadt, Germany), HNO3 (≥69%, Rotipuran Supra, Carl Roth, Karlsruhe, Germany) and H2O2 (30%, Suprapur, Merck, Darmstadt, Germany) were used for all dilutions for ICP-MS measurements. The Ru standard solution was purchased from Labkings (Hilversum, The Netherlands).
For the digestion, approx. 25–50 mg of each organ sample were weighed into PFA-tubes, with 2 mL HNO3 and 100 µL H2O2 being added. The solutions were then placed on a hot plate and heated up for 6 hours using a temperature program with a maximum temperature of 200 °C. After cooling down, the liquids were transferred directly to 15 mL tubes with the remaining solution being removed from the PFA tubes by washing twice with 4 mL ultrapure water, resulting in a final volume of about 10 mL. By writing down the total weight of the resulting liquid, the dilution factor could be calculated.

[2] = parameters: method as in PMID 28848672; details: phase I clinical study; cited from earlier work

[Cl][Ru-]([Cl])([Cl])[Cl].[Na+].c1ccc2[nH]ncc2c1.c1ccc2[nH]ncc2c1 [3a, sodium trans-[tetrachloridobis(indazole)ruthenate(III)]]
%ID/g tissue Blood cells ([1]; 4 h p.i.): 10.70 ± 4.38 %ID/g tissue
%ID/g tissue Blood cells ([1]; 24 h p.i.): 3.43 ± 0.83 %ID/g tissue
%ID/g tissue Blood cells ([1]; 48 h p.i.): 1.96 ± 1.09 %ID/g tissue
%ID/g tissue Blood cells ([1]; 72 h p.i.): 0.67 ± 0.86 %ID/g tissue
%ID/g tissue Bones ([1]; 4 h p.i.): 1.08 ± 0.25 %ID/g tissue
%ID/g tissue Bones ([1]; 24 h p.i.): 0.79 ± 0.20 %ID/g tissue
%ID/g tissue Bones ([1]; 48 h p.i.): 0.88 ± 0.16 %ID/g tissue
%ID/g tissue Bones ([1]; 72 h p.i.): 1.12 ± 0.35 %ID/g tissue
%ID/g tissue Brain ([1]; 4 h p.i.): 0.36 ± 0.19 %ID/g tissue
%ID/g tissue Brain ([1]; 24 h p.i.): 0.15 ± 0.07 %ID/g tissue
%ID/g tissue Brain ([1]; 48 h p.i.): 0.10 ± 0.02 %ID/g tissue
%ID/g tissue Brain ([1]; 72 h p.i.): 0.11 ± 0.00 %ID/g tissue
%ID/g tissue Colon ([1]; 4 h p.i.): 3.53 ± 1.27 %ID/g tissue
%ID/g tissue Colon ([1]; 24 h p.i.): 2.58 ± 0.13 %ID/g tissue
%ID/g tissue Colon ([1]; 48 h p.i.): 1.68 ± 0.58 %ID/g tissue
%ID/g tissue Colon ([1]; 72 h p.i.): 1.63 ± 0.00 %ID/g tissue
%ID/g tissue Heart ([1]; 4 h p.i.): 5.81 ± 0.94 %ID/g tissue
%ID/g tissue Heart ([1]; 24 h p.i.): 3.66 ± 1.31 %ID/g tissue
%ID/g tissue Heart ([1]; 48 h p.i.): 3.28 ± 0.63 %ID/g tissue
%ID/g tissue Heart ([1]; 72 h p.i.): 2.37 ± 1.97 %ID/g tissue
%ID/g tissue Kidneys ([1]; 4 h p.i.): 11.58 ± 1.35 %ID/g tissue
%ID/g tissue Kidneys ([1]; 24 h p.i.): 10.02 ± 1.09 %ID/g tissue
%ID/g tissue Kidneys ([1]; 48 h p.i.): 7.34 ± 4.13 %ID/g tissue
%ID/g tissue Kidneys ([1]; 72 h p.i.): 6.78 ± 0.18 %ID/g tissue
%ID/g tissue Liver ([1]; 4 h p.i.): 12.90 ± 1.14 %ID/g tissue
%ID/g tissue Liver ([1]; 24 h p.i.): 9.84 ± 0.60 %ID/g tissue
%ID/g tissue Liver ([1]; 48 h p.i.): 8.96 ± 3.11 %ID/g tissue
%ID/g tissue Liver ([1]; 72 h p.i.): 7.90 ± 0.35 %ID/g tissue
%ID/g tissue Lung ([1]; 4 h p.i.): 8.24 ± 2.06 %ID/g tissue
%ID/g tissue Lung ([1]; 24 h p.i.): 4.84 ± 0.53 %ID/g tissue
%ID/g tissue Lung ([1]; 48 h p.i.): 4.64 ± 0.94 %ID/g tissue
%ID/g tissue Lung ([1]; 72 h p.i.): 4.41 ± 1.94 %ID/g tissue
%ID/g tissue Muscle ([1]; 4 h p.i.): 0.82 ± 0.18 %ID/g tissue
%ID/g tissue Muscle ([1]; 24 h p.i.): 0.99 ± 0.28 %ID/g tissue
%ID/g tissue Muscle ([1]; 48 h p.i.): 0.66 ± 0.16 %ID/g tissue
%ID/g tissue Muscle ([1]; 72 h p.i.): 0.84 ± 0.02 %ID/g tissue
%ID/g tissue Pancreas ([1]; 4 h p.i.): 5.14 ± 2.01 %ID/g tissue
%ID/g tissue Pancreas ([1]; 24 h p.i.): 2.81 ± 0.68 %ID/g tissue
%ID/g tissue Pancreas ([1]; 48 h p.i.): 3.18 ± 0.85 %ID/g tissue
%ID/g tissue Pancreas ([1]; 72 h p.i.): 2.19 ± 0.01 %ID/g tissue
%ID/g tissue Serum ([1]; 4 h p.i.): 24.85 ± 0.85 %ID/g tissue
%ID/g tissue Serum ([1]; 24 h p.i.): 9.26 ± 1.03 %ID/g tissue
%ID/g tissue Serum ([1]; 48 h p.i.): 6.29 ± 1.02 %ID/g tissue
%ID/g tissue Serum ([1]; 72 h p.i.): 1.41 ± 1.56 %ID/g tissue
%ID/g tissue Small intestine ([1]; 4 h p.i.): 6.38 ± 3.36 %ID/g tissue
%ID/g tissue Small intestine ([1]; 24 h p.i.): 3.78 ± 0.51 %ID/g tissue
%ID/g tissue Small intestine ([1]; 48 h p.i.): 3.28 ± 2.02 %ID/g tissue
%ID/g tissue Spleen ([1]; 4 h p.i.): 4.23 ± 0.68 %ID/g tissue
%ID/g tissue Spleen ([1]; 24 h p.i.): 4.02 ± 0.71 %ID/g tissue
%ID/g tissue Spleen ([1]; 48 h p.i.): 4.59 ± 1.57 %ID/g tissue
%ID/g tissue Spleen ([1]; 72 h p.i.): 3.92 ± 1.93 %ID/g tissue
%ID/g tissue Stomach ([1]; 4 h p.i.): 2.57 ± 0.29 %ID/g tissue
%ID/g tissue Stomach ([1]; 24 h p.i.): 2.13 ± 0.17 %ID/g tissue
%ID/g tissue Stomach ([1]; 48 h p.i.): 1.76 ± 0.77 %ID/g tissue
%ID/g tissue Stomach ([1]; 72 h p.i.): 1.40 ± 0.01 %ID/g tissue
%ID/g tissue Tumor ([1]; 4 h p.i.): 4.43 ± 1.20 %ID/g tissue
%ID/g tissue Tumor ([1]; 24 h p.i.): 8.34 ± 1.36 %ID/g tissue
%ID/g tissue Tumor ([1]; 48 h p.i.): 7.64 ± 1.78 %ID/g tissue
%ID/g tissue Tumor ([1]; 72 h p.i.): 5.32 ± 1.22 %ID/g tissue
maximum tolerated dose [2]: 625 mg/m^2
